In patent US8568736B2, “Polypeptide derivatives of parathyroid hormone (PTH)” (The General Hospital Corporation, priority 1999, dated 2013):
Where “and” joins values, the source holds several entries; their conditions need not be identical. Equal entries are not always repeated. No end group written: not given here.

Legend:
PTH-1 receptor = molecular target: T1, PTH-1 receptor (Homo sapiens, UniProt Q03431); assay: Competition binding with 125I-rPTH(1-34) in HKRK-B7 cells; set-up: expressed in transfected cells; host or cells: LLC-PK1 porcine kidney cells, clone HKRK-B7; details: 125I-rPTH(1-34) tracer
T1 sequence (Q03431 27-593): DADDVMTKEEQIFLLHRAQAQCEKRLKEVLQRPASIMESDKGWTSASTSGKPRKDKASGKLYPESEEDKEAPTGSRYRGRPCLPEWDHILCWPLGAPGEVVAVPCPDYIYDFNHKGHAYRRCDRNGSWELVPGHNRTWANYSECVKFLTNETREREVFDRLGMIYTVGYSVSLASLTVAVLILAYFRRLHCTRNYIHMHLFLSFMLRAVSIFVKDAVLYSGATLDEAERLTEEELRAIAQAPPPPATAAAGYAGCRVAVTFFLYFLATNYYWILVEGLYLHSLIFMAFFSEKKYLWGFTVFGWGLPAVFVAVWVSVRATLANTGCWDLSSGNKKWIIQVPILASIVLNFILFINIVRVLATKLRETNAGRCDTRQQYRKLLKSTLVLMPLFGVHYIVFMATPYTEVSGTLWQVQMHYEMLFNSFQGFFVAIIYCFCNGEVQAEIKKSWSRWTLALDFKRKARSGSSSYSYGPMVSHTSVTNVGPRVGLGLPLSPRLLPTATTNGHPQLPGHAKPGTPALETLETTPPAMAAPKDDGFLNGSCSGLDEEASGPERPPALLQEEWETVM
Experimental: Binding reactions were performed with stably transfected HKRK-B7 cells in 24-well plates. Cells were rinsed with 0.5 mL of binding buffer (50 mM Tris-HCl, 100 mM NaCl, 5 mM KCl, 2 mM CaCl2, 5% heat-inactivated horse serum, 0.5% fetal bovine serum, adjusted to pH 7.7 with HCl), and treated successively with 100 μL binding buffer, 100 μL of binding buffer containing various amounts of unlabeled competitor ligand, and 100 μL of binding buffer containing ca. 100,000 cpm of ^125I-rPTH(1-34) (ca. 26 fmol). Incubations (final volume=300 μL) were at 15° C. for 4 h. Cells were then placed on ice, the binding medium was removed, and the monolayer was rinsed three times with 0.5 mL of cold binding buffer. The cells were subsequently lysed with 0.5 mL 5N NaOH and counted for radioactivity. The nonspecific binding for each experiment was determined by competition with a 1 μM dose of unlabeled rPTH(1-34). The maximum specific binding (B0) was the total radioactivity bound in the absence of unlabeled PTH ligand, corrected for nonspecific binding. Binding IC50 values were determined using nonlinear regression (see below).
All calculations were performed using Microsoft Excel. […] The predicted response (yp) for a given dose (x) of peptide was calculated using the following equation: yp=Min+[(Max−Min)/(1+(EC50/x)^slope)]. […]

PTH-1 receptors = details: cells expressing (high levels of) PTH-1 receptors; Luck et al. 1999; read-out: EC50 adenyl cyclase/cAMP; cited from earlier work
[1] = system: truncated PTH-1 receptor rP1R-ΔNt; assay: cAMP with truncated rat PTH-1 receptor lacking the N-terminal extracellular domain (rP1R-ΔNt); assay type: cell-based; details: COS-7 cells expressing rP1R-ΔNt
[2] = system: truncated PTH-1 receptor rP1R-ΔNt; details: Luck et al. 1999; cited from earlier work

## AVAEIQLMHARAKHLNSMERVEWLRKKLQDVHNY-NH2 [Peptide #7]
PTH-1 receptor
  improvement in binding affinity as compared to rPTH(1-34): about 2 fold

## AVSEIQLMHNLGKH-NH2 [native rPTH(1-14), AVSEIQLMHNLGKH, reference compound]
PTH-1 receptors
  EC50: ~100 µM and 100 µM
[1]
  cAMP formation with rP1R-ΔNt (in words): stimulated cAMP formation
[2]
  potency with truncated vs intact rPTH-1 receptor (in words): as potent
